Laboratory results reported in patent US9839618B2, “Compositions and methods relating to proliferative diseases” (The Penn State Research Foundation, priority 2010, dated 2017).
Where two headings read alike, the source gives them in different places.

Legend:
[1] = test system: FF2441 normal human fibroblasts; experiment: MTS assay viability IC50, normal fibroblasts; format: cell-based
Protocol: The efficacy of leelamine to kill other cancer types is measured and the IC50 for cell lines derived from carcinomas of breast, lung, prostate, connective tissue, pancreas and colon determined. The MTS assay as described in Sharma, A. et al., Clin Cancer Res, 2009, 15:1674-85; and Madhunapantula, S. V. et al., Mol Cancer Ther, 2008, 7:1297-308 is used to establish the IC50 at 24, 48 and 72 hours of leelamine treatment for normal human epidermal melanocytes (FOM103), normal skin fibroblast cells (FF2441), normal skin keratinocytes (HFK) and compared to melanocytic lesion cells from the radial-, vertical- and metastatic melanoma stages. 5×10^3 cells per well in 100 μL of media are plated and grown in a 96-well plate for 48 to 72 hours and treated with either DMSO vehicle control or 0.62 to 40 μmol/L of leelamine for 24, 48 or 72 hours. IC50 values for each compound in μmol/L for respective cell lines are measured from three independent experiments using GraphPad Prism version 4.01 (GraphPad Software, La Jolla, Calif.). Leelamine is found to be not toxic to normal cells and effective to kill melanoma cells as well as non-melanoma cancer cells as shown in Table 1 in FIG. 20. Leelamine is 3- to 4-fold more specific at killing metastatic melanoma than normal cells, supporting cancer therapeutic utility at concentrations<2 μmol/L.
5×10^3 cells per well in 100 μL of media are plated and grown in a 96-well plate for 48 to 72 hours and treated with either DMSO vehicle control or 0.62 to 40 μmol/L of leelamine for 24, 48 or 72 hours. IC50 values for each compound in μmol/L for respective cell lines are measured from three independent experiments using GraphPad Prism version 4.01 (GraphPad Software, La Jolla, Calif.). […]
(§1) Dehydroabietylamine, its N-substituted derivatives and the corresponding dihydroabietylamine and its N-substituted derivatives are tested for their capability to inhibit cell growth of cancer cell lines, including melanoma (UACC 903, 1205Lu), breast (MCF-7), fibrosarcoma (HT-1080), colon (Caco-2), and prostate (PC-3) cancer cell lines. Viability and IC50 of normal human fibroblasts and cell lines from melanoma and other malignancies following treatment with all the agents are measured using the MTS assay (Promega, Madison, Wis.). Human fibroblast FF2441 cells, metastatic melanoma cell lines 1205 Lu and UACC 903 as well as cancer cell lines representing sarcoma (HT-1080), prostate (PC-3, LNCaP), breast (MCF-7) and lung (A-549) are maintained in DMEM (Invitrogen, Carlsbad, Calif.) supplemented with 10% FBS (Hyclone, Logan, Utah) in a 5% CO2 atmosphere, humidified 37° C. incubator. 5×10^3 cells per well in 100 μL of media are plated and grown in a 96-well plate for 48 to 72 h and treated with either DMSO vehicle control or 0.62 to 40 μmol/L for 24, 48 or 72 h. IC50 values for each compound in […] for respective cell lines are measured from three independent experiments using GraphPad Prism version 4.01 (GraphPad Software, La Jolla, Calif.). FIG. 52 is a graph showing IC50 values for leelamine and compounds 4a, 4b and 5a in treated fibroblasts (FF2441) compared to melanoma cells. Selectivity ratio here is defined as ratio of activity against fibroblasts compared to activity against melanoma cells. Leelamine is relatively selective with a ratio of >6 and >4 for UACC903 and 1205Lu melanoma cells. The selectivity ratio of compound 4a is ˜4 and ˜3 for UACC903 and 1205Lu and for compound 4b is ˜4 for both cell lines. The selectivity ratio of compound 5a is ˜4 for UACC903 and >2 for 1205Lu cells.

[2] = test system: melanoma cell lines (UACC 903, 1205Lu); experiment: MTS assay, melanoma cell lines (cell line not given); format: cell-based, human; conditions: UACC 903 and 1205 Lu
Protocol: The mechanistic basis of leelamine's activity to inhibit melanoma cell growth is determined by examining the effect of leelamine on 1) cell viability using the MTS assay; 2) proliferation using a BrdU incorporation assay; 3) apoptosis using an assay for caspase-3/7 activity; and 4) cell cycle analysis. The MTS assay as described in Sharma, A. et al., Clin Cancer Res, 2009, 15:1674-85; and Madhunapantula, S. V. et al., Mol Cancer Ther, 2008, 7:1297-308 is used to assay cell viability. Rates of proliferation and apoptosis are measured by seeding 5×10^3 cells in 96-well plates, followed by treatment with 0.62 to 10 μmol/L of leelamine for 24 hours. Proliferating and apoptotic cells are quantified using a colorimetric cell proliferation ELISA BrdU kit (Roche diagnostics, Indianapolis, Ind.) or Apo-ONE Homogenous caspase-3/7 assay kit (Promega, Madison, Wis.), respectively, as described in Sharma, A. et al., Clin Cancer Res, 2009, 15:1674-85; and Madhunapantula, S. V. et al., Mol Cancer Ther, 2008, 7:1297-308.
as §1

[3] = test system: 1205 Lu human melanoma cell tumors; experiment: Melanoma xenograft tumor development, 1205 Lu; format: in vivo, mice; conditions: intraperitoneally 2.5-7.5 mg/kg daily for 3-4 weeks, compared to DMSO vehicle
Protocol: The efficacy of leelamine for inhibiting melanoma tumor development is evaluated on preexisting tumors formed following subcutaneous injection of cancer cells into nude mice. Tumor kinetics are measured by subcutaneous injection of 1.0×10^6 UACC 903 or 1205 Lu cells in 0.2 mL of DMEM supplemented with 10% FBS subcutaneously injected above both left and right rib cages of 3- to 4-wk-old female athymic nude-Foxn1^nu mice (Harlan Laboratories, Indianapolis, Ind.). Six days later, when a fully vascularized tumor (50-75 mm^3) has formed, mice are randomly divided into DMSO vehicle control and experimental groups (5 mice/group; 2 tumors/mouse) and treated intraperitoneally with 2.5-7.5 mg/kg body weight leelamine daily for 3-4 weeks. Body weight (grams) and dimensions of the developing tumors (mm^3) are measured at the time of drug treatment as described in Sharma, A. et al., Clin Cancer Res, 2009, 15:1674-85; and Madhunapantula, S. V. et al., Mol Cancer Ther, 2008, 7:1297-308.
Tumor kinetics are measured by subcutaneous injection of 1.0×10^6 UACC 903 or 1205 Lu cells in 0.2 mL of DMEM supplemented with 10% FBS subcutaneously injected above both left and right rib cages of 3- to 4-wk-old female athymic nude-Foxn1^nu mice (Harlan Laboratories, Indianapolis, Ind.). […] Body weight (grams) and dimensions of the developing tumors (mm^3) are measured at the time of drug treatment.

[4] = Homo sapiens, FF2441, Table 5, read-out: IC50 Fibroblast FF2441

Molecule CC(C)C1=CC2=CCC3[C@](C)(CCC[C@@]3(C)C(=O)O)C2CC1 (stereo partly drawn) [Abietic acid, (1R,4aR)-1,4a-dimethyl-7-(propan-2-yl)-1,2,3,4,4a,4b,5,6,10,10a-decahydrophenanthrene-1-carboxylic acid, reference compound] has an IC50 ([1]; Homo sapiens, FF2441, Table 4, read-out: IC50 Normal fibroblast FF2441) greater than 100 µM, an IC50 [1, 4] greater than 100 µM and an IC50 ([1]; Table 6, read-out: IC50 Normal fibroblast FF2441) greater than 100 µM. The “anti-cancer activity / viability of melanoma cell lines, in words” value [2] was “no anti-cancer activity”.
CC(C)c1ccc2c(c1)CCC1[C@](C)(CN)CCC[C@]21C (stereo partly drawn) [Leelamine, [(1R,4aS)-1,4a-dimethyl-7-(propan-2-yl)-1,2,3,4,4a,9,10,10a-octahydrophenanthren-1-yl]methanamine] was tested, and the “reduction of tumor volume, 1205 Lu” value [3] was 57%, the IC50 [1, 4] was 8.91 ± 0.57 µM and the “anti-cancer activity / viability of melanoma cell lines, in words” value [2] was “effectively inhibits the viability”.
In the case of CC(C)c1ccc2c(c1)CCC1[C@](C)(CNC(=O)C(F)(F)F)CCC[C@]21C (stereo partly drawn) [Compound 5a, N-{[(1R,4aS)-1,4a-dimethyl-7-(propan-2-yl)-1,2,3,4,4a,9,10,10a-octahydrophenanthren-1-yl]methyl}-2,2,2-trifluoroacetamide], the IC50 [1, 4] is reported as 5.17 ± 0.02 µM.
For CC(C)C1=CC2=CCC3[C@](C)(CN)CCC[C@]3(C)C2CC1 (stereo partly drawn) [Compound 4a, {[(1R,4aR)-1,4a-dimethyl-7-(propan-2-yl)-1,2,3,4,4a,4b,5,6,10,10a-decahydrophenanthren-1-yl]methyl}amine], the IC50 [1, 4] was 8.33 ± 0.43 µM.
